We go through two molecules from US8697390B2, “Method and kit for examination of cells using N-(9-acridinyl) maleimide (NAM) or using 7-diethylamino-3-((4′-iodacetyl)amino)phenyl)-4-methylkcoumarin (CPI)” (ChemoMetec A/S, priority 2008, dated 2014).

For one experiment, the system named is Jurkat (JM) cells. Briefly: CPI/PI staining as marker of cell viability in proliferating Jurkat cells. Format: cell-based. The settings on record: 98% viable, 10 μL CPI (100 μg/mL DMSO) in 90 μL cells. The procedure: Jurkat (JM) cells were grown at 37° C. in a humidified air atmosphere with 5% CO2 in RPMI (Invitrogen, #61870) supplemented with 10% heat-inactivated fetal bovine serum (Invitrogen, #10108-165). 90 μL proliferating Jurkat cells (cell density 1.1×10^6, 98% viable determined using the NC-100 NucleoCounter system following the manufacturer's (ChemoMetec) protocol) were added 10 μL CPI (7-diethylamino-3-((4′-(iodoacetyl)amino)phenyl)-4-methylcoumarin, Sigma 78264 CAS no. 76877-34-4) dissolved in DMSO (100 μg CPI pr. mL DMSO) and mixed by pipetting. Cells were loaded into a NucleoCassette, containing the DNA stain propidium iodide (PI). The cells were investigated using an Olympus IX50 fluorescent microscope, and images were captured using a Lumenera CCD camera and in-house developed software. PI and CPI fluorescence were detected using, respectively, U-MWG2 (green long pass: 510-550 nm) and U-MNUA2 (UV band pass, 330-385 nm) filter cubes (Olympus).

In a further experiment the test system is HEK293 cells. Briefly: NAM/PI staining to determine viability of outgrown HEK293 cells (fluorescence microscopy). The settings on record: HEK293 cells treated with 0.25% Triton X-100, then 10 μg/mL NAM; PI from NucleoCassette. Format: cell-based, human. The procedure:
HEK293 cells were grown at 37° C. in a humidified air atmosphere with 5% CO2 in DMEM (Invitrogen, #31966) supplemented with 10% heat-inactivated fetal bovine serum (Invitrogen, #10108-165). Cells were harvested with 0.5 mL of trypsin (Invitrogen, #25300) and neutralized with 5 mL medium (DMEM+10% FCS) two days after they had reached full confluency. These outgrown HEK293 cells (cell density 1.6×10^6, 78% viable determined using the NC-100 NucleoCounter system following the manufacturer's (ChemoMetec) protocol) were stained with 10 μg/mL NAM (Sigma, #01665). Another cell sample were treated with 0.25% Triton X-100 (Sigma, #T9284) and hereafter added 10 μg/mL NAM. After staining, each cell sample was loaded into a NucleoCassette, containing the DNA stain propidium iodide (PI). The cells were investigated using an Olympus IX50 fluorescent microscope, and images were captured using a Lumenera CCD camera and in-house developed software. PI and NAM fluorescence were detected using, respectively, U-MWG2 (green long pass: 510-550 nm) and U-MNUA2 (UV band pass, 330-385 nm) filter cubes (Olympus).

For the molecule `CCN(CC)c1ccc2c(C)c(-c3ccc(NC(=O)CI)cc3)c(=O)oc2c1` [CPI, 7-diethylamino-3-((4′-(iodoacetyl)amino)phenyl)-4-methylcoumarin], in the experiment with Jurkat (JM) cells, the “staining of cells by CPI versus PI” value is listed as “nearly all cells were stained by CPI”.

For `CC[N+](C)(CC)CCC[n+]1c(-c2ccccc2)c2cc(N)ccc2c2ccc(N)cc21.[I-].[I-]` [PI, propidium iodide], the “staining of Triton X-100 treated cells” value in the experiment with HEK293 cells was “PI positive”.
